Publication PMC3131588, “Effects of Onion (Allium cepa L.) Extract Administration on Intestinal α-Glucosidases Activities and Spikes in Postprandial Blood Glucose Levels in SD Rats Model” (International Journal of Molecular Sciences, 2011)

Legend:
[1] = target: T1, rat intestinal α-glucosidase; assay: p-nitrophenyl-α-D-glucopyranoside hydrolysis, absorbance at […] nm; type: biochemical; details: 5 mM p-nitrophenyl-α-D-glucopyranoside stock (50 μL), 0.1 M phosphate pH 6.9, 25 °C; crude rat intestinal enzyme; quercetin bought as dihydrate
T1 construct: gene Mgam; native enzymes in crude supernatant of rat intestinal acetone powder (Sigma-Aldrich), EC 3.2.1.20; not resolved to one gene product

[2] = target: T2, rat intestinal maltase; assay: maltose hydrolysis, liberated glucose by glucose oxidase method; type: biochemical; details: maltose 0.4 mg/mL, 0.1 M phosphate pH 7.0, 37 °C, 30 min; crude rat intestinal enzyme; quercetin bought as dihydrate
T2 construct: gene Mgam; native enzymes in crude supernatant of rat intestinal acetone powder (Sigma-Aldrich); maltase activity not resolved to one gene product
Text: maltose hydrolysis, liberated glucose by glucose oxidase method on rat intestinal maltase

## O=c1c(O)c(-c2ccc(O)c(O)c2)oc2cc(O)cc(O)c12 [quercetin, 3,3′,4′,5,7-Pentahydroxyflavone dihydrate]
[1]
  IC50: 150 µg/mL
[2]
  IC50: 70 µg/mL
